From US20250051862A1, “METHODS AND COMPOSITIONS RELATED TO ENGINEERED BIOSENSORS” (priority 2021, published 2025) come the findings set out here.

≈ marks a conversion by molar mass, not a printed value.

The nature of data set [1]: Solubility limit of BIAs in 1% DMSO. The settings on record: used as maximum ligand concentration. In kind it is physicochemical. As for the experimental part: (a) Transfer functions for all four generations of RamR variants with five different BIAs. The maximum ligand concentration was chosen based on the compound's solubility limit in 1% DMSO, 100 μM for Noscapine and 250 μM for all other BIAs. Fluorescent measurements for each condition were an average of three biological replicates. (b) Background fluorescence measurements for all RamR generations. The same promoter was used to express variants from each evolutionary trajectory (see methods) (c) Orthogonality matrix of all evolved sensors. Fold-response is shown for all BIAs for the native RamR protein, the first, second, third, and fourth generations from top to bottom, respectively. 100 μM of the indicated BIA was applied in all conditions. Measurements for each condition were an average of three biological replicates.

The target in the next data set is T1, RamR (Salmonella typhimurium, UniProt Q8ZR43).
T1 construct: expressed in transfected cells; host or cells: E. coli DH10B co-transformed with pReg (regulator) and pGFP (reporter)
T1 sequence (Q8ZR43 whole entry, looked up): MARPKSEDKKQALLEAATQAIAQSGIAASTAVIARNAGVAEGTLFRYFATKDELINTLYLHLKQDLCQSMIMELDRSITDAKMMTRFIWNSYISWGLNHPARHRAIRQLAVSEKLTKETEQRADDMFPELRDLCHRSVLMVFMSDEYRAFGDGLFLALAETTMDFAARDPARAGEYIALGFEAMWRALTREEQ
Nature of the data set: Biosensor response assay: fluorescence response of multidrug resistance regulators to target BIAs. In kind it is cell-based, Escherichia coli. The settings on record: E. coli DH10B, pReg + pGFP (sfGFP); glaucine 1 mM, noscapine 100 uM, papaverine 500 uM, rotundine 250 uM, tetrahydropapaverine 1 mM. As for the experimental part:
To identify a biosensor with some degree of BIA affinity to serve as a suitable scaffold for evolution, the responsiveness of six well characterized multidrug resistance regulators, QacR, TtgR, RamR, SmeT, NalD, and Bm3R1 to the target BIAs were assayed. Regulators were constitutively expressed on one plasmid (pReg) that was co-transformed with another plasmid bearing the regulator's cognate promoter expressing sfGFP (pGFP). Promoters for QacR and TtgR were obtained from the literature while promoters for the remainder were designed by either placing the sensor's operator downstream a medium strength promoter (Bm3R1) or by modifying the −35 or −10 regions of the sensor's native promoter towards the E. coli consensus (NalD, SmeT, RamR) [18*, 18**] if necessary to produce sufficient transcription (FIG. 7a). The ability of each regulator to repress transcription was confirmed by measuring the promoter activity with and without the expression of the cognate sensor via fluorescence (FIG. 7b). […]
Promoters for TtgR and QacR were derived from the literature. […] 100 μL of the cell resuspension for each condition was transferred to a 96 well microtiter plate (Corning, Product #: 3904), from which the fluorescence (Ex: 485 nm, Em: 509 nm) and absorbance ([…]) was measured using the Tecan Infinite M1000 plate reader.

Take `COc1ccc2c(c1OC)C(=O)O[C@@H]2[C@H]1c2c(cc3c(c2OC)OCO3)CCN1C` [Noscapine, noscapine]: the “solubility limit in 1% DMSO” value in data set [1] came to 100 µM (≈ 41.3 µg/mL).

B1: RamR: multidrug resistance regulator from Salmonella typhimurium, template for sensor evolution (protein)
chain: MVARPKSEDKKQALLEAATQAIAQSGIAASTAVIARNAGVAEGTLFRYFATKDELINTLYLHLRQDLCQSLIMELDRSITDAKMMMRFIWNSGISWGLNHPARHRAIRQLAVSEKLTKETHQRDLDMFPELRDILHRRVLMVFMSDEYRAFGDGLFLALAETTMDFAARDPARAGEYIALGFEAMWRALTREEQ
modifications: Description of sequence peptide sensor; Name PAP4; This sensor binds to papaverine
notes: multidrug resistance regulator from Salmonella typhimurium, template for sensor evolution
On to B1, for which, in the data set with RamR, the “Fluorescence response to target BIAs” value is “moderately responsive”.
